Patent US8304447B2, “2-acylaminopropoanol-type glucosylceramide synthase inhibitors” (Genzyme Corporation, priority 2007, dated 2012)

Tested on: GM3
Test: GM3 Elisa assay
Assay type: cell-based
Conditions: Table 3 (IC 50 Values); B16-FO cells; read-out: IC50_uM_Mean
Procedure, shortened: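 Murine B16-FO melanoma cells attached 6 h on collagen, then exposed to compounds for 2 days at 37 °C. After formaldehyde fixation, cell-surface GM3 (NeuAc) was detected by anti-GM3 IgM and peroxidase anti-mouse IgM with Quantablu fluorescence (Ex 325/Em 420).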

IC50 [nM] | SMILES
≤ 100 | COc1ccc(CNC(=O)N[C@H](CN2CC[C@H](O)C2)[C@H](O)c2ccc(OCCCCF)cc2)cc1 [Compound 498]
≤ 100 | COCCCCCCCC(=O)N[C@H](CN1CC[C@H](O)C1)[C@H](O)c1ccc(OCCCCF)cc1 [Compound 499]
≤ 100 | COc1ccc(C(=O)CCCC(=O)N[C@H](CN2CC[C@H](O)C2)[C@H](O)c2ccc(OCCCCF)cc2)cc1 [Compound 500]
≤ 100 | COc1ccc(OCCC(=O)N[C@H](CN2CC[C@H](O)C2)[C@H](O)c2ccc(OCCCCF)cc2)cc1 [Compound 502]
≤ 100 | O=C(NCc1ccc(Cl)cc1)N[C@H](CN1CC[C@H](O)C1)[C@H](O)c1ccc(OCCCCF)cc1 [Compound 503]
3000 to 10000 | COc1ccc(OCCC(=O)N[C@H](CN2CC[C@H](c3ccccc3)C2)[C@H](O)c2ccc3c(c2)OCCO3)cc1 [Compound 505]
3000 to 10000 | CCCCCCCC(=O)N[C@H](CN1CC[C@H](c2ccccc2)C1)[C@H](O)c1ccc2c(c1)OCCO2 [Compound 506]
100 to 1000 | CCCCCCCC(=O)N[C@H](Cn1ccnc1)[C@H](O)c1ccc2c(c1)OCCO2 [Compound 507]
3000 to 10000 | COc1ccc(OCCC(=O)N[C@H](Cn2ccnc2)[C@H](O)c2ccc3c(c2)OCCO3)cc1 [Compound 508]
3000 to 10000 | CCCCCCCC(=O)N[C@H](CN1CC[C@H](F)C1)[C@H](O)c1ccc2c(c1)OCCO2 [Compound 510]
3000 to 10000 | COc1ccc(OCCC(=O)N[C@H](CN2CC[C@H](F)C2)[C@H](O)c2ccc3c(c2)OCCO3)cc1 [Compound 511]
100 to 1000 | COc1ccc(OCCC(=O)N[C@H](CN2CC[C@H](O)C2)[C@H](O)c2ccc3c(c2)OCCO3)cc1 [Compound 514]
100 to 1000 | COc1ccc(OCCC(=O)N[C@H](CN2CC3CC3C2)[C@H](O)c2ccc3c(c2)OCCO3)cc1 (some centres unmarked) [Compound 516]

The remaining lines, values behind:

SMILES | IC50 [nM]
COc1ccc(OCCCC(=O)N[C@H](CN2CC[C@H](O)C2)[C@H](O)c2ccc(OCCCCF)cc2)cc1 [Compound 501] | ≤ 100
CCCCCCCC(=O)N[C@H](CN1CC[C@@H](F)C1)[C@H](O)c1ccc2c(c1)OCCO2 [Compound 504] | 100 to 1000
COc1ccc(OCCC(=O)N[C@H](CN2CC[C@@H](F)C2)[C@H](O)c2ccc3c(c2)OCCO3)cc1 [Compound 509] | 100 to 1000
CCCCCCCC(=O)N[C@H](CN1CC[C@@H](O)C1)[C@H](O)c1ccc2c(c1)OCCO2 [Compound 512] | 1000 to 3000
COc1ccc(OCCC(=O)N[C@H](CN2CC[C@@H](O)C2)[C@H](O)c2ccc3c(c2)OCCO3)cc1 [Compound 513] | 3000 to 10000
CCCCCCCC(=O)N[C@H](CN1CC[C@H](O)C1)[C@H](O)c1ccc2c(c1)OCCO2 [Compound 515] | ≤ 100
CCCCCCCC(=O)N[C@H](CN1CC2CC2C1)[C@H](O)c1ccc2c(c1)OCCO2 (some centres unmarked) [Compound 517] | 100 to 1000
COc1ccc(C(=O)CCCCCC(=O)N[C@H](CN2CC[C@@H](O)C2)[C@H](O)c2ccc3c(c2)OCCO3)cc1 [Compound 518] | 100 to 1000
COc1ccc(OCCC(=O)N[C@H](CN2CCC(C)(C)C2)[C@H](O)c2ccc3c(c2)OCCO3)cc1 [Compound 519] | 3000 to 10000
COc1ccc(C(=O)CCCCCC(=O)N[C@H](CN2CCC(C)(C)C2)[C@H](O)c2ccc3c(c2)OCCO3)cc1 [Compound 520] | 1000 to 3000
CCCCCCCC(=O)N[C@H](CN1CCC(C)(C)C1)[C@H](O)c1ccc2c(c1)OCCO2 [Compound 521] | 3000 to 10000
COc1ccc(C(=O)CCCCCC(=O)N[C@H](CN2C3CCC2CC3)[C@H](O)c2ccc3c(c2)OCCO3)cc1 [Compound 522] | ≤ 100
COc1ccc(OCCC(=O)N[C@H](CN2C3CCC2CC3)[C@H](O)c2ccc3c(c2)OCCO3)cc1 [Compound 523] | 100 to 1000
